The record followed here is article PMC3582601, “New analogues of 13-hydroxyocatdecadienoic acid and 12-hydroxyeicosatetraenoic acid block human blood platelet aggregation and cyclooxygenase-1 activity” (Chemistry Central Journal, 2012).

One may read the IC50 as the concentration at which inhibition is half-maximal.

Read-outs that look alike come from different tables or passages of the source.

Data set [1] has as its system human washed platelets. Briefly: Platelet aggregation triggered by arachidonic acid (light transmittance aggregometry). Format: cell-based. The conditions noted are these: for Effect on arachidonic acid-dependent platelet aggregation: 25 μM arachidonic acid, human washed platelets; for IC50 / Plt aggregation IC50 ± S.E.M: human washed platelets 0.4 x 10^9 plt/ml, inhibitor 1 min before 25 μM arachidonic acid, n = 3–4; for IC50: read-out: Plt aggregation IC50 ± S.E.M. The procedure: Figure 2 Aggregation curves of inhibitory compounds. Platelet aggregation was performed on human washed platelets. Platelets (0.4 × 10^9 plt/ml) were treated with increasing concentrations of each inhibitor for 1 min prior to the addition of 25 μM of arachidonic acid for 2 min. Results represent aggregation curves of compound 3 (A), compound 4 (B), compound 7 (C), compound 8 (D), and compound 9 (E). Aggregation curves are representative of at least 4 experiments with similar results.
Slopes of aggregation curves were analyzed by Grafit 7 software and inhibition curves were obtained. (A) represents compounds of type I and (B) compounds of type II. […] Results correspond to mean ± S.E.M. for 3–5 experiments.
(§1) Venous blood was obtained from healthy volunteers who had not ingested any drugs for the last 14 days and after informed consent in accordance with the Institutional Review Board (IRB) of the American University of Beirut (Approval # BioCh.AH.03). Washed platelets were prepared as described previously. Briefly, 20 ml of peripheral blood was withdrawn on ACD-C (1 volume for 9 volumes of blood) and centrifuged at 120 g for 15 min at room temperature (RT) to obtain platelet-rich plasma. Platelet-rich plasma was further centrifuged at 1,200 g for 15 min at RT, and the platelet pellet obtained was washed by Tyrode buffer solution containing 0.1 μM of PGE1 and further centrifuged at 1,200 g for 15 min at RT. […] Aggregation of washed-platelets was determined using light transmittance aggregometry (Chrono-Log Corp., Havertown, PA). 400 μl of platelets (0.4 x 10^9plt/ml) were preincubated for 1 min at 37 °C in the absence or presence of inhibitors prior to the addition of 25 μM of arachidonic acid, which was controlled as optimal in our conditions. In some experiments, platelets were triggered with 1 μM U46619, a TX receptor agonist, or 0.5 μg/ml collagen, a concentration we checked in our conditions to induce COX-dependent platelet aggregation. TXB2 was measured in the supernatant by enzyme immunoassay.
(§2) Aggregation data were expressed after defining the slope for each aggregation curve, which better reflects the rate of the platelet reaction, using the Born’s method. Curve fitting and calculation of the IC50 values were done using Grafit 7 software (Erithacus software, Staines, UK). Results of TXB2 and PGE2 measurement were expressed as the mean ± S.E.M. for at least 3 different experiments and statistical analysis was performed using Sigma Plot (Systat Software Inc., San Jose, CA). Autoradiograms obtained from western blot analyses were scanned using Epson 1680 pro scanner and densitometric analysis was performed using Scion Image (Scion Corporation, MD).

Data set [2] has as its system human washed platelets. Briefly: Platelet aggregation induced by collagen. Format: cell-based. The conditions noted are these: 0.5 μg/ml collagen. The procedure: Figure 6 Effect of inhibitory compounds on platelet aggregation and TXB2 level formation in response to collagen. […] TXB2 levels were measured in the supernatant of platelets (C). Results represent 3 experiments.
as §1

The target in a further data set is T1, human COX-1 (Homo sapiens, UniProt P23219).
T1 construct: expressed in transfected cells; host or cells: COS-7
The data set can be described thus: COX-1 activity (PGE2 by enzyme immunoassay) in COS-7 cells overexpressing human COX-1. In kind it is cell-based. As to conditions: COS-7 cells overexpressing human COX-1, 30 min compound then 25 μM arachidonic acid 30 min, n = 3-4, read-out: COX-1 activity IC50 ± S.E.M. The procedure: Figure 4 Inhibition of COX-1 activity. Human COX-1 was overexpressed in COS-7 cells. […] PGE2 was measured in the supernatant by enzyme immunoassay. Results were expressed as percentage of PGE2 in arachidonic acid treated samples which was attributed a value of 100. Fitting of curves was done using Grafit software. Results correspond to mean ± S.E.M. for 3 experiments. […] Insert represents Western blot analysis of COX-1 using selective monoclonal COX-1 in untransfected and pcDNA3-COX-1transfected cells.
as §2

In data set [3] the test system is COS-7 cells overexpressing COX-1. Briefly: WST-1 viability assay. The conditions noted are these: 25 and 50 μM. Background: Tetrazolium dyes change colour on reduction, which living cells bring about.
Experimental: We used COS-7 cells overexpressing human COX-1. […] In these cells which express only COX-1, arachidonic acid is metabolized into prostaglandin (PG) H2 which will consequently breakdown into PGE2. Measurement of PGE2 under these conditions will reflect COX-1 activity [18, 19].
COS-7 cells were grown using DMEM-medium containing 10% fetal bovine serum (FBS). Cells were transfected in suspension with pcDNA3-COX-1 plasmid using FuGENE® 6 transfection reagent at a ratio of 3:1 (FuGENE: DNA, v/w) and then cultured in DMEM media + 10% FBS in 12-well plates. […] PGE2 was measured in the supernatants by enzyme immunoassay [23]. Cells were washed twice with PBS and lysed in lysis buffer. […] Briefly, SDS polyacrylamide electrophoresis was performed using 8% gels followed by protein transfer using a semi-dry transfer machine.
For the next data set, the target named is T2, thromboxane receptor (Homo sapiens, UniProt P21731).
T2 construct: Venous blood was obtained from healthy volunteers; endogenous in cells; host or cells: washed human blood platelets
T2 sequence (P21731 1-343): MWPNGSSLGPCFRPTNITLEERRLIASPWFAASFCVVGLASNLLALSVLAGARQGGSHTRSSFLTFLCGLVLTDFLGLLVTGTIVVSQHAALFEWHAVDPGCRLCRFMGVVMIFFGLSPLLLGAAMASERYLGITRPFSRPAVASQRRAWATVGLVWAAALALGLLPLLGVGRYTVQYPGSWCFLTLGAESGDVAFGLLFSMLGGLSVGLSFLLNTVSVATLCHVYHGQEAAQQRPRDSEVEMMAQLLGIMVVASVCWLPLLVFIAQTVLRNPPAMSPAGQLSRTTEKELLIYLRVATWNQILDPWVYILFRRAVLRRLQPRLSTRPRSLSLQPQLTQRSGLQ
The data set can be described thus: Platelet aggregation in response to TX receptor agonist U46619. Format: cell-based. As to conditions: 50 μM compound, 1 μM U46619. As for the experimental part: Figure 7 Effect of inhibitory compounds on platelet aggregation in response to TX receptor agonist, U46619. Platelets (0.4x 10^9 plt/ml) were pretreated with 50 μM of inhibitory compounds 3, 4, 7, 8 and 9 then triggered with 1 μM U46619, a thromboxane receptor agonist. Aggregation curves of compounds of type I (A) and type II (B) are representative of 2 experiments with similar results.
as §1

T1 sequence (P23219 24-599): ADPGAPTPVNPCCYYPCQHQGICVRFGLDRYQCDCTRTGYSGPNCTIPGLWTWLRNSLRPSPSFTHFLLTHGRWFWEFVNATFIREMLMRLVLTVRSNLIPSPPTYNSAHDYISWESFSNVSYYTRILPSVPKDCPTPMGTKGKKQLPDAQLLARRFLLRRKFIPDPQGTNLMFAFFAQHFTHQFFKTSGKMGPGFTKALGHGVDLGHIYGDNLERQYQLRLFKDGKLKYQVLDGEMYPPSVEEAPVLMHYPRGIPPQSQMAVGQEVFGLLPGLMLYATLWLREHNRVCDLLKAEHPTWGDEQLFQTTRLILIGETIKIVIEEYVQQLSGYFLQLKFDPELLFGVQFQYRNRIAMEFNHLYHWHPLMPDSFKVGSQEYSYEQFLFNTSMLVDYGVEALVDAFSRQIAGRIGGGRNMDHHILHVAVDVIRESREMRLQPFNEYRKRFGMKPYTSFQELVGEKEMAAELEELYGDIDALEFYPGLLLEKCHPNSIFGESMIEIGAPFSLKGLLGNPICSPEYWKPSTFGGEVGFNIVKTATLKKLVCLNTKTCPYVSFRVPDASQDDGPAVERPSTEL

Consider `CCCCCCCCCC(O)c1ccc(O)c(OC)c1` (stereo not drawn) [Compound 5], for which, in the data set with human washed platelets [1], the “Effect on arachidonic acid-dependent platelet aggregation” value (shortened to “Effect”) is “loss of the inhibitory activity” and the concentration for half-maximal inhibition (IC50) worked out at 97.6 ± 83.5 µM.
In the case of `COc1ccc(C(O)c2ccccc2)cc1OC` (stereo not drawn) [Compound 10], in the data set with human washed platelets [1], the “Effect” value is “completely abolished the inhibitory activity” and the “Plt aggregation IC50 ± S.E.M” value is “No inhibition”.
As to `CCCCCC(O)c1cccc(C=NO)c1` (stereo not drawn) [Compound 1], in the data set on human washed platelets [1], the “Effect” value is on record as “no inhibitory effect” and the “Plt aggregation IC50 ± S.E.M” value is reported as “No inhibition”.
In the case of `COc1cc(C(C)(O)c2ccccc2)ccc1O` (stereo not drawn) [Compound 9], the “Platelet aggregation induced by collagen” value in the data set with human washed platelets [2] (50 μM compound) is reported as “blocked platelet aggregation induced by collagen”. Besides, the IC50 was 8.1 ± 1.7 µM on human COX-1 and 11.3 ± 4.8 µM in the data set on human washed platelets [1]. The “Toxicity in WST-1 viability assay” value in data set [3] was “absence of toxicity”. On thromboxane receptor, the “Thromboxane receptor-dependent platelet aggregation” value is “None of the compounds 3, 4, 7, 8 and 9 were able to act”.
On to `CCCCCC(O)c1ccc(O)c(OC)c1` (stereo not drawn) [Compound 3], for which the “Platelet aggregation induced by collagen” value with human washed platelets [2] (50 μM compound) was “blocked platelet aggregation induced by collagen”. The half-inhibitory concentration (IC50) came to 2.2 ± 0.7 µM on human COX-1 and 7.5 ± 0.8 µM in the data set on human washed platelets [1]. Besides, in data set [3], the “Toxicity in WST-1 viability assay” value is listed as “absence of toxicity”. For the same molecule, on thromboxane receptor, the “Thromboxane receptor-dependent platelet aggregation” value was “None of the compounds 3, 4, 7, 8 and 9 were able to act”.
Regarding `COc1cc(C(O)C2CCCC2)ccc1O` (stereo not drawn) [Compound 6], in the data set with human washed platelets [1], the “Effect” value is on record as “loss of the inhibitory activity” and the half-maximal inhibitory concentration (IC50) amounted to 41.2 ± 0.7 µM.
As to `COc1cc(C(O)c2ccc(F)cc2)ccc1O` (stereo not drawn) [Compound 8], in the data set on human washed platelets [2] (50 μM compound), the “Platelet aggregation induced by collagen” value was “blocked platelet aggregation induced by collagen”. For the same molecule, the IC50 on human COX-1 was 6.5 ± 0.2 µM. Besides, in the data set on human washed platelets [1], the “Effect” value is listed as “significant inhibitory activities” and the IC50 is 13.4 ± 0.5 µM. The “Toxicity in WST-1 viability assay” value in data set [3] is given as “absence of toxicity”. Moreover, on thromboxane receptor, the “Thromboxane receptor-dependent platelet aggregation” value was “None of the compounds 3, 4, 7, 8 and 9 were able to act”.
Take `COc1cc(C(O)c2ccccc2)ccc1O` (stereo not drawn) [Compound 7]: in the data set with human washed platelets [2] (50 μM compound), the “Platelet aggregation induced by collagen” value was “blocked platelet aggregation induced by collagen”. For the same molecule, the IC50 at human COX-1 was 1.3 ± 0.5 µM; in the data set with human washed platelets [1], 8.5 ± 1.2 µM. Also, the “Effect” value in the data set with human washed platelets [1] is listed as “significant inhibitory activities”. The “Toxicity in WST-1 viability assay” value in data set [3] was “absence of toxicity”. At thromboxane receptor, the “Thromboxane receptor-dependent platelet aggregation” value is “None of the compounds 3, 4, 7, 8 and 9 were able to act”.
With `CCCCCC(O)c1cccc(C(=O)O)c1` (stereo not drawn) [Compound 2], in the data set on human washed platelets [1], the “Effect” value is given as “no inhibitory effect” and the “Plt aggregation IC50 ± S.E.M” value is “No inhibition”.
Regarding `CC(C)Cc1ccc(C(C)C(=O)O)cc1` (stereo not drawn) [Ibuprofen, reference compound], the “Platelet aggregation induced by collagen” value in the data set on human washed platelets [2] (25 μM ibuprofen) was “strongly inhibited”. Further, the 50% inhibitory concentration (IC50) in the data set with human washed platelets [1] (Platelet) stood at 0.5 ± 0.11 µM.
Turning to `CCCCC(O)c1ccc(O)c(OC)c1` (stereo not drawn) [Compound 4], in the data set on human washed platelets [2] (50 μM compound), the “Platelet aggregation induced by collagen” value was “blocked platelet aggregation induced by collagen”. For the same molecule, the IC50 at human COX-1 turned out to be 12.1 ± 2.3 µM; in the data set on human washed platelets [1], 14.2 ± 5.7 µM. For the same molecule, in data set [3], the “Toxicity in WST-1 viability assay” value is “absence of toxicity”. The “Thromboxane receptor-dependent platelet aggregation” value at thromboxane receptor was “None of the compounds 3, 4, 7, 8 and 9 were able to act”.
